# From patent US20190256509A1, “HISTONE DEMETHYLASE INHIBITORS” (CHRYSALIS, INC., priority 2016, published 2019)
# pIC50: −log10 of the molar value.
# Target: T1, KDM5B enzyme (Homo sapiens, UniProt Q9UGL1)
# T1 construct: Reaction Biology Corp (named for the assay, not expressly for the enzyme)
# Assay: KDM5B HTRF (TR-FRET) demethylase inhibition assay
# Assay type: biochemical
# Settings: 1.2 nM KDM5B, 30 nM Biotin-H3K4Me3 1-21 substrate, 10 point dose-response
# Procedure: Ten point dose-response curves for the compounds of Examples 1-135 were determined using a homogeneous time resolved fluorescence (HTRF) assay (Reaction Biology Corp, Malvern, Pa.). This assay combines fluorescence resonance energy transfer (FRET) with time resolve (TR) measurements (TR-FRET). The KDM5B α-ketoglutarate-dependent demethylase activity is calculated by measuring demethylation of a biotin labeled histone tri-methylated H3K4 substrate using an europium-cryptate (Eu)-labeled antibody donor specific for dimethylated histone H3K4 and a Streptavidin-XL665 acceptor that binds to the biotin group of substrate, and detecting FRET by exciting the reaction mixture at 320 nm and reading dual emissions at 615 nm and 665 nm.
# Briefly, compounds disclosed herein were solubilized in DMSO and a series of 10, three-fold serial dilutions were made for each compound in 100% DMSO. The initial starting concentration for the serial dilutions of each compound was 10 μM or 100 μM. Control samples lacking compound, KDM5B enzyme or various reaction components also were prepared and processed in parallel with compound test samples.
# An aliquot of each serial dilution of test compound was added to a 384 well plate (Corning Cat #3572) containing 1.2 nM KDM5B enzyme suspended in 50 mM Hepes, pH7.5, 50 mM NaCl, 0.01% Tween 20, 0.1% BSA, and 1% DMSO (final concentrations) in a 10 microliter reaction volume using a LABCYTE ECHO liquid handler. The samples were mixed, subjected to centrifugation and the plate was pre-incubated at room temperature for 15 minutes (min), to which 30 nM Biotin-H3K4Me3 1-21 substrate (Anaspec, Freemont Calif., Cat #64192), 20 μM Fe(II) and 20 μM α-ketoglutarate co-factors, and 100 μM Ascorbate were added to initiate the enzymatic reaction. The reaction mixture was incubated at room temperature for 45 minutes. A 10 μl aliquot of a detection mixture of Eu-labeled anti-histone H3K4Me2 antibody (CisBIO, Bedford Mass., Cat #610AXLB) and Streptavidin-XL665 (CisBIO, Bedford Mass., Cat #610 SAXLB) in 200 mM potassium fluoride and 10 mM EDTA was added and kinetic measurements were read at 5 minute intervals for a period of 30 minutes using an Envision Multiplate Reader (PerkinElmer Model 2102; excitation at 320 nm and emission reads at 615 nm and 665 nm). The IC50 value for each compound was determined from the 665/615 ratio obtained for each 10 point dose-response curve using GraphPad Prism 4 software with a sigmodial dose response.
# T1 sequence (Q9UGL1 whole entry): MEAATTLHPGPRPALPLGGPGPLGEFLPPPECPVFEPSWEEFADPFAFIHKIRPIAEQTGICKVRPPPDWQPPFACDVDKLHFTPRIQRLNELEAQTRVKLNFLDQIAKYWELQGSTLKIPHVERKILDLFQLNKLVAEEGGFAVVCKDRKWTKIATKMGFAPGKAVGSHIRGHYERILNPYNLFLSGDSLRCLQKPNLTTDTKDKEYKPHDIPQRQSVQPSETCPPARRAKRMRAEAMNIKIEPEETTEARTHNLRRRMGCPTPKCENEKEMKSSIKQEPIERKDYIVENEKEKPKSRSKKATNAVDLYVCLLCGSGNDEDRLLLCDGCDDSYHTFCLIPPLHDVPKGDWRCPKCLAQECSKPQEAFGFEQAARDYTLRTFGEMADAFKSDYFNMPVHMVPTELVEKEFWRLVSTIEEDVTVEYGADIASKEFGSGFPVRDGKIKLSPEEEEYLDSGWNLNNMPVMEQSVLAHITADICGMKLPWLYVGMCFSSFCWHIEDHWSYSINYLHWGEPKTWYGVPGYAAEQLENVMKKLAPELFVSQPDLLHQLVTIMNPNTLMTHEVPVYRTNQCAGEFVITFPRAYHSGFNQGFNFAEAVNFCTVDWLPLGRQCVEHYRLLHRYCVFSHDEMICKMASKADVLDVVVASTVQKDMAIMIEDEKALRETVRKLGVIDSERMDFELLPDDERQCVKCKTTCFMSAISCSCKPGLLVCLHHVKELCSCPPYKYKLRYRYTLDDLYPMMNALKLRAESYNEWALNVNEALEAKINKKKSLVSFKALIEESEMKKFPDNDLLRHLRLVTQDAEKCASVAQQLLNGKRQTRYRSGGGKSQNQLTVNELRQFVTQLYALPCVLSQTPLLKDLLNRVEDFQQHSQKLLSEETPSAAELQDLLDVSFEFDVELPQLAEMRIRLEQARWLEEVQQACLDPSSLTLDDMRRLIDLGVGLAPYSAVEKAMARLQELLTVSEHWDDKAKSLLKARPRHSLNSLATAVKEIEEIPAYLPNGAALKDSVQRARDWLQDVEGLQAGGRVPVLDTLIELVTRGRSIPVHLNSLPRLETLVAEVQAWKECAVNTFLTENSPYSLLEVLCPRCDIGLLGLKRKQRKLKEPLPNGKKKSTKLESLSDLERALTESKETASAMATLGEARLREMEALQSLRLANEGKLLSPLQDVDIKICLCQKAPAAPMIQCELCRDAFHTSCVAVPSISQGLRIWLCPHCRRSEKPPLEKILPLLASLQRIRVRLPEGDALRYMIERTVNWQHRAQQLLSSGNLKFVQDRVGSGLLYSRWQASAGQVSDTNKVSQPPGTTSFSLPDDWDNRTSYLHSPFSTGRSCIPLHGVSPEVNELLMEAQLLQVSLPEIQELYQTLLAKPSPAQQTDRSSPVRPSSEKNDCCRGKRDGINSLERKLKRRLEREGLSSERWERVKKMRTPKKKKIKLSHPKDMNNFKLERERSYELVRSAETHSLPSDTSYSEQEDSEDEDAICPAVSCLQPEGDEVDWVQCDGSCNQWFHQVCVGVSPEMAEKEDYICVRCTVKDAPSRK
row,SMILES,pIC50
1,O=C(O)c1c(NCc2cccc(F)c2F)ccc2nccn12 [Example 79],< 6.00
2,CCCCc1ccc(CNc2ccc3nccn3c2C(=O)O)cc1 [Example 65],< 6.00
3,O=C(O)c1c(NCc2ccc(F)c(Br)c2)ccc2nccn12 [Example 90],< 6.00
4,Cc1cc(CNc2ccc3nccn3c2C(=O)O)ccc1F [Example 63],< 6.00
5,O=C(O)c1c(NCc2ccc(F)cc2Cl)ccc2nccn12 [Example 13],≥ 6.30
6,Cc1ccc(C(F)(F)F)c(CNc2ccc3nccn3c2C(=O)O)c1 [Example 69],< 6.00
7,COc1ccc(Cl)cc1CNc1cc(C(=O)O)n2ccnc2c1 [Example 117],< 6.00
8,COc1cc(Cl)ccc1COc1ccc2nccn2c1C(=O)O [Example 120],< 6.00
9,O=C(O)c1c(NCc2ccc(C(F)(F)F)cc2F)ccc2nccn12 [Example 41],6.00 to 6.30
10,COc1ccc(F)c(CNc2ccc3nccn3c2C(=O)O)c1F [Example 11],< 6.00
11,O=C(O)c1cc(-c2cn(Cc3ccc(Cl)cc3)cn2)cc2nccn12 [Example 113],≥ 6.30
12,O=C(O)c1c(NCC2CCCc3cc(Oc4ccccc4)ccc32)ccc2nccn12 (stereo not shown) [Example 115],< 6.00
13,O=C(O)c1c(NCc2ccccc2-c2ccccc2)ccc2nccn12 [Example 44],6.00 to 6.30
14,O=C(O)c1c(NCc2cc(Cl)c(F)cc2F)ccc2nccn12 [Example 99],< 6.00
15,O=C(O)c1c(NCc2ccc(-c3ccccc3)cc2)ccc2nccn12 [Example 7],< 6.00
16,CCOc1ccccc1CNc1ccc2nccn2c1C(=O)O [Example 40],< 6.00
17,CN(C)Cc1ccccc1CNc1ccc2nccn2c1C(=O)O [Example 131],< 6.00
18,O=C(O)c1c(NCc2cccc3c2CNCC3)ccc2nccn12 [Example 121],< 6.00
19,O=C(O)c1cc(Oc2ccc3ccncc3c2)cc2nccn12 [Example 109],< 6.00
20,O=C(O)c1c(NCc2cc(F)ccc2F)ccc2nccn12 [Example 82],6.00 to 6.30
21,CN(C)c1ccc(CNc2ccc3nccn3c2C(=O)O)cc1 [Example 96],< 6.00

row,SMILES,pIC50
1,COc1cc(Cl)ccc1CNc1cc(C(=O)O)n2ccnc2c1 [Example 122],< 6.00
2,O=C(O)c1cnc2cc(Oc3ccc4ccncc4c3)ccn12 [Example 105],< 6.00
3,CN(Cc1ccc(F)cc1)Cc1ccc(Oc2cc(C(=O)O)n3ccnc3c2)cc1 [Example 134],< 6.00
4,O=C(O)c1c(NCc2cccc(Br)c2)ccc2nccn12 [Example 4],≥ 6.30
5,Cc1cc(F)ccc1CNc1ccc2nccn2c1C(=O)O [Example 61],6.00 to 6.30
6,COc1cc(Cl)ccc1OCc1cc(C(=O)O)n2ccnc2c1 [Example 129],≥ 6.30
7,O=C(O)c1c(NCc2cc(F)c(F)c(F)c2)ccc2nccn12 [Example 87],< 6.00
8,COc1cccc(CNc2ccc3nccn3c2C(=O)O)c1 [Example 94],≥ 6.30
9,O=C(O)c1c(NCc2cccc(OC(F)F)c2)ccc2nccn12 [Example 19],< 6.00
10,Cc1cc(Cl)ccc1CNc1ccc2nccn2c1C(=O)O [Example 57],6.00 to 6.30
11,O=C(O)c1c(NCc2ccccc2Cl)ccc2nccn12 [Example 91],< 6.00
12,O=C(O)c1c(NCc2ccc(N3CCOCC3)cc2)ccc2nccn12 [Example 64],< 6.00
13,COc1ccccc1CNc1ccc2nccn2c1C(=O)O [Example 17],< 6.00
14,O=C(O)c1c(NCc2ccc(F)c(F)c2)ccc2nccn12 [Example 45],≥ 6.30
15,COc1cc(CNc2ccc3nccn3c2C(=O)O)ccc1O [Example 75],< 6.00
16,O=C(O)c1c(NCc2ccc(Cl)cc2F)ccc2nccn12 [Example 56],< 6.00
17,COc1cc(Cl)ccc1CNc1ccc2nc(C)cn2c1C(=O)O [Example 119],< 6.00
18,O=C(O)c1c(NCc2ccc(Cl)c(F)c2)ccc2nccn12 [Example 58],< 6.00
19,O=C(O)c1c(NCc2ccc(C(F)(F)F)c(F)c2)ccc2nccn12 [Example 48],< 6.00
20,O=C(O)c1c(NCc2cc(C(F)(F)F)cc(C(F)(F)F)c2)ccc2nccn12 [Example 6],< 6.00
21,COc1c(F)cccc1CNc1ccc2nccn2c1C(=O)O [Example 92],6.00 to 6.30

row,SMILES,pIC50
1,O=C(O)c1c(NCc2c(Cl)cccc2Cl)ccc2nccn12 [Example 10],< 6.00
2,O=C(O)c1c(NCc2ccccc2-n2cccn2)ccc2nccn12 [Example 83],≥ 6.30
3,O=C(O)c1c(NCc2ccccc2N2CCOCC2)ccc2nccn12 [Example 86],< 6.00
4,O=C(O)c1c(NCc2cccc(C(F)(F)F)c2F)ccc2nccn12 [Example 16],< 6.00
5,O=C(O)c1c(NCc2ccc(N3CCCCC3)cc2)ccc2nccn12 [Example 27],< 6.00
6,CC(O)c1ccn2c(C(=O)O)cnc2c1 (stereo not shown) [Example 103],< 6.00
7,Cc1ccc(F)cc1CNc1ccc2nccn2c1C(=O)O [Example 68],< 6.00
8,Cc1ccc(CNc2ccc3nccn3c2C(=O)O)c(F)c1 [Example 42],< 6.00
9,O=C(O)c1c(NCc2cccc(Cl)c2Cl)ccc2nccn12 [Example 9],< 6.00
10,CC(C)(C)c1ccc(CNc2ccc3nccn3c2C(=O)O)cc1 [Example 25],< 6.00
11,COc1ccccc1Oc1cc(C(=O)O)n2ccnc2c1 [Example 108],< 6.00
12,O=C(O)c1c(NCc2ccc3c(c2)CCO3)ccc2nccn12 [Example 98],< 6.00
13,CS(=O)(=O)c1ccccc1CNc1ccc2nccn2c1C(=O)O [Example 84],≥ 6.30
14,O=C(O)c1c(NCc2ccccc2C(F)(F)F)ccc2nccn12 [Example 2],6.00 to 6.30
15,O=C(O)c1c(NCc2ccc(-c3cccs3)cc2)ccc2nccn12 [Example 53],< 6.00
16,O=C(O)c1c(NCc2ccc(-n3ccnc3)cc2)ccc2nccn12 [Example 78],≥ 6.30
17,N#Cc1ccc(CNc2ccc3nccn3c2C(=O)O)cc1 [Example 59],≥ 6.30
18,O=C(O)c1cc(OCCN2CCC(c3cc(Cl)cc(Cl)c3)CC2)cc2nccn12 [Example 132],< 6.00
19,CC(O)c1cc(C(=O)O)n2ccnc2c1 (stereo not shown) [Example 106],< 6.00
